# Several values for one entry are separate records, joined by “and”; a condition that tells them apart may be missing. Equal values may be shown once. Read-outs that look alike come from different tables or passages of the source.
# What was measured:
# [1] = test system: nAChRs expressed in the pharynx of A. suum; assay: tissue or blood; type: cell-based; conditions: for Emax: Ascaris suum, read-out: % change in membrane conductance (δG) normalized to the ACh δG; for mode of antagonism of the pharyngeal ACh response / maximal response (δG) of ACh in the presence of antagonist: antagonist 10 μM; for mode of antagonism of the pharyngeal ACh response: ACh pEC50 unchanged, maximal response inhibited; for maximal response (δG) of ACh in the presence of antagonist / normalized response (δG) to muscarinic agonists, control ACh = 100%: mean±SE; for normalized response (δG) to muscarinic agonists, control ACh = 100%: 100 μM, 10 s application, n=4
# Experimental: A. suum pharyngeal dissections and electrophysiology recordings were adapted from Martin [49]. Briefly, pharynx was dissected out from the head region of the worm and mounted on Sylgard (Sigma-Aldrich Inc., USA)—lined in a double jacketed bath chamber maintained at 28°C. The muscle layer surrounding the anterior 3rd of the pharynx was preserved for anchoring. The intestine attached to the posterior end of the pharynx was used for stretching and pinning down. The preparation was continuously perfused with calcium-free Ascaris Perienteric Fluid-Ringer (calcium-free APF-Ringer) composition (mM): NaCl 23, Na-acetate 110, KCl 24, MgCl2 11, glucose 11, and HEPES 5; NaOH or acetic acid was added to adjust the pH to 7.6. […] The rate of localized perfusion was 3.5–4 ml min^−1 through a 20-gauge needle, which was placed directly above the recording region of the pharynx. […] We used 3 M potassium acetate in our micropipettes to get the final resistances of 4–7 MΩ for the voltage sensing and 0.5–1 MΩ for the current injecting electrode for current-clamp recordings. The current-injecting electrode injected hyperpolarizing step currents of −1000 nA for 500 ms at 0.3 Hz.
# We constructed the sigmoidal concentration-response plots by fitting the data by nonlinear regression to determine the pEC50 and the maximal response (Rmax). Extra sum of squares F-test was used to test statistical differences between pEC50, slope, and maximal response. The significance levels were set to P<0.05.
# In applications containing arecoline and pilocarpine, we used mecamylamine, a nAChR antagonist (30µM) to inhibit nAChRs and to allow only mAChR activation.
# [2] = target: T1, Cel-EAT-2 and Cel-EAT-18c nAChR (Caenorhabditis elegans, UniProt Q9U298); assay: Two-electrode voltage-clamp of Cel-EAT-2 + Cel-EAT-18c nAChR expressed in Xenopus oocytes; type: cell-based; conditions: for Emax at 100 µM: read-out: current response normalized to the control 100 μM ACh current (Imax); for Emax at 100 µM / current response normalized to the control 100 μM ACh current (Imax): agonist 100 μM, n≥6
# T1 sequence (Q9U298 22-474): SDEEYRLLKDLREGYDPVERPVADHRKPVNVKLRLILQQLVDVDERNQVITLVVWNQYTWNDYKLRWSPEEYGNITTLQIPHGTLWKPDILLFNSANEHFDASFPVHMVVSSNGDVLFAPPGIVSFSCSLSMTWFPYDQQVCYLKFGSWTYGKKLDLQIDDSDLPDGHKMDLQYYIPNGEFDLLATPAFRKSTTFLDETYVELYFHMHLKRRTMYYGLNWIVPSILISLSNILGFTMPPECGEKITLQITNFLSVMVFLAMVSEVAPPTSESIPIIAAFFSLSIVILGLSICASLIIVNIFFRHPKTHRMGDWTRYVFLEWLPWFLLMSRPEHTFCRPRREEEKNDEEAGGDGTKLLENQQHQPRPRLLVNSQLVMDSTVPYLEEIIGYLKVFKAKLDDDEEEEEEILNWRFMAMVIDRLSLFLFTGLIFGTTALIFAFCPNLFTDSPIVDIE
# Asu-EAT-2 nAChR = Asu-EAT-2 nAChR (Ascaris suum, UniProt F1L9Y6); assay: cell-based; type: cell-based, A. suum; conditions: for Emax: read-out: current response normalized to the control 100 μM ACh current
# [3] = test system: A. suum muscarinic receptor; parameters: method as in earlier work; conditions: all used at 100 µM; ref 1 Kimber M.J. et al. Int J Parasitol 39: 1215-1222 (2009); cited from earlier work
# Sequence of Asu-EAT-2 nAChR (F1L9Y6 entry or part of it): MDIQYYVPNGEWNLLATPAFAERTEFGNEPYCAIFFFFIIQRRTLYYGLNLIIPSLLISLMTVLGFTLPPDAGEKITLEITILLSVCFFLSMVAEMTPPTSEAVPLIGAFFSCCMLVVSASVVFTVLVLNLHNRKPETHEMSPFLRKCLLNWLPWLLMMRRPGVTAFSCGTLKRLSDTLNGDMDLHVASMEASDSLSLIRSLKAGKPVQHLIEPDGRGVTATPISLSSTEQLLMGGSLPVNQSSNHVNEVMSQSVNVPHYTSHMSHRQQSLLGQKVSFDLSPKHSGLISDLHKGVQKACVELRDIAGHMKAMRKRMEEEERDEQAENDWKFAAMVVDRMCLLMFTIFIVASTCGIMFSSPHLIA
# Sequence of Asu-EAT-2 nAChR (F1L1D9 entry or part of it, further chain): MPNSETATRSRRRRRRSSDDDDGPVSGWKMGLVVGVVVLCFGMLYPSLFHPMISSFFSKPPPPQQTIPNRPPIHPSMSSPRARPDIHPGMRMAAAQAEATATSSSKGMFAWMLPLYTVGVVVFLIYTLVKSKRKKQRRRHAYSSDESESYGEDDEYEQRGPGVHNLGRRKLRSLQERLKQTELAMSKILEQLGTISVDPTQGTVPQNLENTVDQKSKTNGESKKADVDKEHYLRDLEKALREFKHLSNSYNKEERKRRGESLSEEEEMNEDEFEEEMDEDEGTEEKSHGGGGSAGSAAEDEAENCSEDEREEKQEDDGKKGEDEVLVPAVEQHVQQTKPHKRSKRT
compound,measurement,setting,value
C[N+](C)(C)CCCCCC[N+](C)(C)C [hexamethonium],% inhibition of 100 μM ACh membrane conductance (δG),[1],26.8±1.9%
c1ccc([C@H]2CN3CCSC3=N2)cc1 [levamisole],Emax at 100 µM,[2]; mean±SEM,0%
same,Emax,[1],1.8 ± 0.61%
same,current response normalized to the control 100 μM ACh current,Asu-EAT-2 nAChR,failed to activate the receptor
same,Emax,Asu-EAT-2 nAChR,0%
CN1[C@@H](CC(=O)c2ccccc2)CCC[C@H]1C[C@H](O)c1ccccc1 [lobeline],Emax at 100 µM,[2]; mean±SEM,0%
CNC1(C)C2CCC(C2)C1(C)C (stereo not shown) [mecamylamine],% inhibition of 100 μM ACh membrane conductance (δG),[1],92% and 92.2±1.9%
CC(=O)OC(C)C[N+](C)(C)C (stereo not shown) [methacholine],current response normalized to the control 100 μM ACh current (Imax),[2]; mean±SEM,73 ± 5.3%
same,Hill slope (nH),"[2]; agonist concentration-response, mean±SEM",3.5±1.3
same,Emax at 100 µM,[2]; mean±SEM,73 ± 5.3%
same,EC50,[2]; read-out: pEC50 (converted),79.4 µM
CCN1C[C@]2(COC(=O)c3ccccc3N3C(=O)C[C@H](C)C3=O)CC[C@H](OC)[C@@]34[C@@H]5C[C@H]6[C@H](OC)[C@@H]5[C@](O)(C[C@@H]6OC)[C@@](O)([C@@H](OC)[C@H]23)[C@@H]14 [methyllycaconitine],% inhibition of 100 μM ACh membrane conductance (δG),[1],62.6±3.7%
same,mode of antagonism of the pharyngeal ACh response,[1],non-competitive antagonists
same,maximal response (δG) of ACh in the presence of antagonist,[1],57.0±4.6 μS
Cc1ccsc1/C=C/C1=NCCCN1C [morantel],current response normalized to the control 100 μM ACh current (Imax),[2]; mean±SEM,did not activate the receptor
same,Emax,[1],0.3 ± 0.3%
same,Emax,"Asu-EAT-2 nAChR; mean±SEM, n≥5",0%
c1cncc([C@@H]2CCCN2)c1 [nornicotine],Emax at 100 µM,[2]; mean±SEM,0%
CN1CCCN=C1/C=C/c1cccc(O)c1 [oxantel],current response normalized to the control 100 μM ACh current (Imax),[2]; mean±SEM,11 ± 1.3%
same,Emax at 100 µM,[2]; mean±SEM,11 ± 1.3%
same,Emax,[1],0%
same,Emax,"Asu-EAT-2 nAChR; mean±SEM, n≥5",3 ± 1.3%
O=C1CCCN1CC#CCN1CCCC1 [oxotremorine],"normalized response (δG) to muscarinic agonists, control ACh = 100%",[1],1.8±0.8%
same,response relative to ACh (rank order series of muscarinic agonists),[3],61%
CN1C(=O)[C@]23C[C@H]4C(C)(C)[C@@]5(C[C@@]41CN2CC[C@@]3(C)O)C(=O)Nc1c5ccc2c1OC=CC(C)(C)O2 [paraherquamide],Imax of ACh concentration-response in the presence of antagonist,[2]; antagonist 30 μM,40.2±2.7%
same,% inhibition of 100 μM ACh membrane conductance (δG),[1],37.2±8.7%
same,mode of antagonism of the pharyngeal ACh response,[1],non-competitive antagonists
same,maximal response (δG) of ACh in the presence of antagonist,[1],87.7±5.7 μS
CC[C@@H]1C(=O)OC[C@@H]1Cc1cncn1C [pilocarpine],"normalized response (δG) to muscarinic agonists, control ACh = 100%",[1]; in the presence of mecamylamine 30 μM,0.7±0.7%
same,response relative to ACh (rank order series of muscarinic agonists),[3],14%
CN1CCCN=C1/C=C/c1cccs1 [pyrantel],Emax at 100 µM,[2]; mean±SEM,0%
same,Emax,[1],0%
same,current response normalized to the control 100 μM ACh current,Asu-EAT-2 nAChR,failed to activate the receptor
same,Emax,Asu-EAT-2 nAChR,0%
C[N+](C)(CCOc1ccccc1)Cc1cccs1 [thenium],Emax,[1],6.1 ± 1.5%
same,Emax,"Asu-EAT-2 nAChR; mean±SEM, n≥5",0%
C/C(=N/c1ccc(/N=C/c2ccc(/C=N/c3ccc(/N=C(/C)N(C)C)cc3)cc2)cc1)N(C)C [tribendimidine],% change in membrane conductance (δG) normalized to the ACh δG,"[1]; normalized to 100 μM ACh (10 s), mean±SEM, n≥4",0.0±0.0%
α-bungarotoxin [α-BTX],Imax of ACh concentration-response in the presence of antagonist,[2],86.0±2.4%
same,effect on sensitivity and efficacy of the receptor for ACh,[2],not altered
α-cotinine,current response normalized to the control 100 μM ACh current (Imax),[2]; mean±SEM,0.0±0.0%

# Reference: PMC7173930, “EAT-18 is an essential auxiliary protein interacting with the non-alpha nAChR subunit EAT-2 to form a functional receptor” (PLoS Pathogens, 2020)
